Each structure is given as a SMILES string.

In ChEMBL document CHEMBL4229455, “Synthesis and anticancer activity of novel bisindolylhydroxymaleimide derivatives with potent GSK-3 kinase inhibition” (Bioorg Med Chem, 2018) one finds growth, Activity and IC50 data, which are given here for five compounds.

Assay [1] relates to OVCAR-8. The assay can be described thus: Cytotoxicity against human OVCAR8 cells assessed as cell growth at 10 uM after 48 hrs by SRB assay relative to control. In kind it is functional. Conditions: OVCAR-8, 48 h, read-out: Activity. (In general: Sulforhodamine B stains cellular protein and so reports cell mass.)
Assay [2] concerns the target CDK2/Cyclin A2 (Homo sapiens) (UniProt P24941+P20248). Nature of the assay: Inhibition of full length human CDK2/cyclin A assessed as residual activity at 10 uM using histone H1 as substrate in presence of [gamma-33P]ATP. It is filed as protein-complex assay.
The subject of assay [3] is Hs-578T. Nature of the assay: Cytotoxicity against human Hs 578T cells assessed as cell growth at 10 uM after 48 hrs by SRB assay relative to control. The following applies: read-out: Activity. In kind it is functional.
Assay [4] has as its system ACHN. The assay can be described thus: Cytotoxicity against human ACHN cells assessed as cell growth at 10 uM after 48 hrs by SRB assay relative to control. Conditions: read-out: Activity. It is filed as functional.
Assay [5] has as its system MCF7. The assay can be described thus: Cytotoxicity against human MCF7 cells assessed as cell growth at 10 uM after 48 hrs by SRB assay relative to control. It is filed as functional. Conditions: MCF7, 48 h, read-out: Activity.
In assay [6] the target is Cyclin-dependent kinase 5/CDK5 activator 1 (Homo sapiens, UniProt Q00535). Nature of the assay: Inhibition of recombinant full length human CDK5/p25 expressed in bacteria using histone H1 as substrate in presence of [gamma-33P]ATP.
Assay [7] deals with Glycogen synthase kinase-3 (Sus scrofa, UniProt B2LUN4+I6LNT8). Nature of the assay: Inhibition of domestic porcine brain full length GSK-3alpha/beta using GS-1 as substrate in presence of [gamma-33P]ATP. Set-up: species or system Sus scrofa domesticus.
Assay [8] deals with HCT-15. Nature of the assay: Cytotoxicity against human HCT15 cells assessed as cell growth at 10 uM after 48 hrs by SRB assay relative to control. In kind it is functional. Conditions: HCT-15, 48 h, read-out: Activity.
The subject of assay [9] is NCI/ADR-RES. Nature of the assay: Cytotoxicity against human NCI-ADR-RES cells assessed as cell growth at 10 uM after 48 hrs by SRB assay relative to control. In kind it is functional. Conditions: read-out: Activity.
Assay [10] has as its system SK-MEL-5. Nature of the assay: Cytotoxicity against human SK-MEL-5 cells assessed as cell growth at 10 uM after 48 hrs by SRB assay relative to control. Conditions: SK-MEL-5, 48 h, read-out: Activity. It is filed as functional.
Assay [11] deals with T1, Serine/threonine-protein kinase haspin (Homo sapiens, UniProt Q8TF76).
T1 sequence (Q8TF76 whole entry): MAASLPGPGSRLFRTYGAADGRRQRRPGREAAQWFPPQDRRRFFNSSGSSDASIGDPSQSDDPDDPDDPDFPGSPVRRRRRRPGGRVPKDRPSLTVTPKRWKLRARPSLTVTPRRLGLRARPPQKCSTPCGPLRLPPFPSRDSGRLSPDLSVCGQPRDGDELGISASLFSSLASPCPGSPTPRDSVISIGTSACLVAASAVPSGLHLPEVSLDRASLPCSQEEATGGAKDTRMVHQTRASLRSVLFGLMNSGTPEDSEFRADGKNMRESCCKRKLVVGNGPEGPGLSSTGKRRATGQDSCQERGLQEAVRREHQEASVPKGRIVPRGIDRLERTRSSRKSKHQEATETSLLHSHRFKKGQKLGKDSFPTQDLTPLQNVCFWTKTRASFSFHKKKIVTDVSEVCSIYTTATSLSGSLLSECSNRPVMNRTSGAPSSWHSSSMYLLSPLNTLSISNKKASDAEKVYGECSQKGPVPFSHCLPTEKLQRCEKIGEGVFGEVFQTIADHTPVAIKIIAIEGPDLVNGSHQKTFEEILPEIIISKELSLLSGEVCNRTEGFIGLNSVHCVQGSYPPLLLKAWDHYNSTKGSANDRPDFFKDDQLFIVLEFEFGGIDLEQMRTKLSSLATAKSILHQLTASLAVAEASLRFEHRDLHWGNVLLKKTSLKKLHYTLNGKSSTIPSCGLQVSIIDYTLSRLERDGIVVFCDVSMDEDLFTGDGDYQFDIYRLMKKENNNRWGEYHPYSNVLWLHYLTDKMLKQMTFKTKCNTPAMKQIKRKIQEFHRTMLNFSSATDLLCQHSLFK
Nature of the assay: Inhibition of recombinant human haspin kinase domain expressed in bacteria using histone H3 (1 to 21 residues) peptide as substrate in presence of [gamma-33P]ATP.

The test system of assay [12] is UACC-62. The assay can be described thus: Cytotoxicity against human UACC62 cells assessed as cell growth at 10 uM after 48 hrs by SRB assay relative to control. It is filed as functional. The following applies: UACC-62, 48 h, read-out: Activity.
The subject of assay [13] is UO-31. The assay can be described thus: Cytotoxicity against human UO31 cells assessed as cell growth at 10 uM after 48 hrs by SRB assay relative to control. In kind it is functional. The following applies: UO-31, 48 h, read-out: Activity.
In assay [14] the target is T2, Serine/threonine-protein kinase haspin (Homo sapiens) (UniProt Q8TF76).
T2 sequence (whole entry): T1 sequence (Q8TF76 whole entry)
Nature of the assay: Inhibition of recombinant human haspin kinase domain expressed in bacteria assessed as residual activity at 10 uM using histone H3 (1 to 21 residues) peptide as substrate in presence of [gamma-33P]ATP.

Assay [15] relates to RXF 393. Nature of the assay: Cytotoxicity against human RXF393 cells assessed as cell growth at 10 uM after 48 hrs by SRB assay relative to control. It is filed as functional. The following applies: RXF 393, 48 h, read-out: Activity.
In assay [16] the test system is BT-549. The assay can be described thus: Cytotoxicity against human BT549 cells assessed as cell growth at 10 uM after 48 hrs by SRB assay relative to control. In kind it is functional. Conditions: BT-549, 48 h, read-out: Activity.
Assay [17] has as its system PC-3. Nature of the assay: Cytotoxicity against human PC3 cells assessed as cell growth at 10 uM after 48 hrs by SRB assay relative to control. It is filed as functional. The following applies: PC-3, 48 h, read-out: Activity.
Assay [18] has as its system NCI-H23. Nature of the assay: Cytotoxicity against human NCI-H23 cells assessed as cell growth at 10 uM after 48 hrs by SRB assay relative to control. It is filed as functional. Conditions: NCI-H23, 48 h, read-out: Activity.
Assay [19] addresses CDK9/cyclin T1 (Homo sapiens, UniProt P50750). Nature of the assay: Inhibition of recombinant full length human CDK9/cyclin T expressed in baculovirus infected Sf9 insect cells using YSPTSPSYSPTSPSYSPTSPSKKKK as substrate in presence of [gamma-33P]ATP.
For assay [20], the target named is Serine/threonine-protein kinase pim-1 (Homo sapiens, UniProt P11309). Nature of the assay: Inhibition of recombinant full length human PIM1 expressed in bacteria assessed as residual activity at 10 uM using histone H1 as substrate in presence of [gamma-33P]ATP.
Assay [21] has as its system KM12. Nature of the assay: Cytotoxicity against human KM12 cells assessed as cell growth at 10 uM after 48 hrs by SRB assay relative to control. In kind it is functional. Conditions: KM12, 48 h, read-out: Activity.
Assay [22] has as its system OVCAR-3. Nature of the assay: Cytotoxicity against human OVCAR3 cells assessed as cell growth at 10 uM after 48 hrs by SRB assay relative to control. It is filed as functional. The following applies: OVCAR-3, 48 h, read-out: Activity.
The test system of assay [23] is SNB-75. The assay can be described thus: Cytotoxicity against human SNB75 cells assessed as cell growth at 10 uM after 48 hrs by SRB assay relative to control. It is filed as functional. The following applies: SNB-75, 48 h, read-out: Activity.
Assay [24] has as its system SK-MEL-2. Nature of the assay: Cytotoxicity against human SK-MEL-2 cells assessed as cell growth at 10 uM after 48 hrs by SRB assay relative to control. It is filed as functional. The following applies: SK-MEL-2, 48 h, read-out: Activity.
The subject of assay [25] is Malme-3M. Nature of the assay: Cytotoxicity against human MALME-3M cells assessed as cell growth at 10 uM after 48 hrs by SRB assay relative to control. Conditions: read-out: Activity. It is filed as functional.

Cyclin-dependent kinase 5/CDK5 activator 1, sequence (Q00535 whole entry): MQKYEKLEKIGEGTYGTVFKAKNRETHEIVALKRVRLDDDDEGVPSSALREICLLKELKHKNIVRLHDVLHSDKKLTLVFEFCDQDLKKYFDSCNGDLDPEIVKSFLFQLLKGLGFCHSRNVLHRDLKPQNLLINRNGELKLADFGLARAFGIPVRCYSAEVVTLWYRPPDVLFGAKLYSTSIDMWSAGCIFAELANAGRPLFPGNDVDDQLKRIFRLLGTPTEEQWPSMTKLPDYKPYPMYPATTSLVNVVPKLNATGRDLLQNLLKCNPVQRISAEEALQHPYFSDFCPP
Cyclin-dependent kinase 5/CDK5 activator 1, sequence (Q15078 whole entry, further chain): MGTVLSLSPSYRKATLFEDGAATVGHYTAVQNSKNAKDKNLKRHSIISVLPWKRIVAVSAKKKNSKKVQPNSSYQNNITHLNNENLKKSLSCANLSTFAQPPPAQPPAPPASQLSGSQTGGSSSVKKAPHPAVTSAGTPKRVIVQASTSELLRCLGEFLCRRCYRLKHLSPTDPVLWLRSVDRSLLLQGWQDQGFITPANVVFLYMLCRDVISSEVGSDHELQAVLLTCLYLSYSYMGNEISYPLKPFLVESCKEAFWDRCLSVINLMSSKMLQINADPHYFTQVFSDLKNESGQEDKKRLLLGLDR
Serine/threonine-protein kinase pim-1, sequence (P11309 whole entry, looked up): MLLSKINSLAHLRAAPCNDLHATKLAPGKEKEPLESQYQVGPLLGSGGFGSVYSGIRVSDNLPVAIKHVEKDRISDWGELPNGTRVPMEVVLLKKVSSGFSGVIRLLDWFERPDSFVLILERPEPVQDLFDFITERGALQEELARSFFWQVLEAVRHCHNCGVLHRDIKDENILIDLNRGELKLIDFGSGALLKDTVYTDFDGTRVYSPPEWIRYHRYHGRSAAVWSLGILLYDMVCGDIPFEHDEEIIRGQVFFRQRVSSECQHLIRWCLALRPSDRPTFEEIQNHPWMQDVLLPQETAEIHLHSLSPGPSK
CDK9/cyclin T1, sequence (O60563 whole entry): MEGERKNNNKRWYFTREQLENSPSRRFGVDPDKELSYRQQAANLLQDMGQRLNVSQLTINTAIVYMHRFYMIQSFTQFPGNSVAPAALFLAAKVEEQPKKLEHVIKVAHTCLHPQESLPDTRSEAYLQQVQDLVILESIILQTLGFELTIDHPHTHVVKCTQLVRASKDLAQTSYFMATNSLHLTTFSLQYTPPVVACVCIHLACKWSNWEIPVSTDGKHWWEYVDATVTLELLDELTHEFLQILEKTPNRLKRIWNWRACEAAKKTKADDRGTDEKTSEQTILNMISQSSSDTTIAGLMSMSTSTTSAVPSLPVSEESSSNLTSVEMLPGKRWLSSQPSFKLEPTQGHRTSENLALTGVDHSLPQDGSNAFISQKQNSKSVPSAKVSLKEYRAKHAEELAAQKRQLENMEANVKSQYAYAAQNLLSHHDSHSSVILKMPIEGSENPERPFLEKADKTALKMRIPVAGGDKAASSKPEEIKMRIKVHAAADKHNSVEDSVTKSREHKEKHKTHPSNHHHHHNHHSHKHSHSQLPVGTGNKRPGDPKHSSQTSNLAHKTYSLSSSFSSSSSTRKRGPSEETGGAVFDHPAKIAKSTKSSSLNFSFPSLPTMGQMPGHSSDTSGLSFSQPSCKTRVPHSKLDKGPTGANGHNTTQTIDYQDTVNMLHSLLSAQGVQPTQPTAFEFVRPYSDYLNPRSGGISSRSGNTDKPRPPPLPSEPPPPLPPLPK
CDK9/cyclin T1, sequence (P50750 whole entry): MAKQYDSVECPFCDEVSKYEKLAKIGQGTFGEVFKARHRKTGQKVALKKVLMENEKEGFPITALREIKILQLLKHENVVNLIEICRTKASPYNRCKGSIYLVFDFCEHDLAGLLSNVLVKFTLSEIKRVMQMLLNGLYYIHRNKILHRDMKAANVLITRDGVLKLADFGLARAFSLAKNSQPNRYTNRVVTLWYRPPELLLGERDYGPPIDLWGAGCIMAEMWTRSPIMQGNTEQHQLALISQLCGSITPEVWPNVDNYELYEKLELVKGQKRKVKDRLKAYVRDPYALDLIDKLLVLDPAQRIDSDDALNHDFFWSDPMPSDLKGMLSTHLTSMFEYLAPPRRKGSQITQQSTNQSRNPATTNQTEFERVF

In the case of `Cn1cc(C2=C(c3cn(CCCCCC(=O)O)c4ccccc34)C(=O)N(O)C2=O)c2ccccc21`, the growth at 10 µM was 87.7% in assay [1]; 102% in assay [3]; 92.9% in [4]; 90% in [5]; 96.5% in assay [8]; 100% in [9]. Also, the growth at 10 µM worked out at 97.8% in assay [10]; 99% in [12]; 63.2% in assay [13]; 111% in [15]; 103% in assay [16]; 76.6% in assay [17]. The growth at 10 µM in assay [18] turned out to be 95.2%; in assay [21], 99.3%; in assay [22], 104%; in [23] it was 86.5%. The Activity in [2] is 36%; in assay [14] it was 103%; in [20], 64%. For the same compound, the IC50 in assay [6] was more than 10 µM; in [7] it was 3.2 µM; in assay [11], more than 10 µM; in assay [19], 0.7 µM.
In the case of `O=C(O)CCCCCn1cc(C2=C(c3c[nH]c4ccccc34)C(=O)N(O)C2=O)c2ccccc21`, the growth at 10 µM in assay [1] amounted to 99.4%; in [3] it was 103%; in assay [4] it was 97.5%; in assay [5], 102%; in [8], 97.3%; in [9], 106%. The growth at 10 µM in [10] was found to be 93.9%; in assay [24], 99.4%; in [12], 95.7%; in [13], 61%; in assay [15], 101%; in assay [16] it was 99.9%. For the same compound, the growth at 10 µM in [17] turned out to be 84.9%; in assay [18], 97.6%; in [21], 95.6%; in [22], 99.3%; in assay [23], 86%. The values for the Activity in [2], in [14] and in assay [20] were 66%, 113% and 53%, respectively. The IC50 in assay [6] was more than 10 µM; in [7] it was 0.75 µM; in [11], more than 10 µM; in [19], 2 µM.
On to `Cn1cc(C2=C(c3cn(CCCCCC#N)c4ccccc34)C(=O)N(O)C2=O)c2ccccc21`, for which the growth at 10 µM in [1] stood at 100%; in assay [3] it was 93.5%; in [4], 97.4%; in [5], 77.7%; in [8], 91.2%; in assay [9], 102%. Besides, the growth at 10 µM in assay [10] turned out to be 78.8%; in [24], 94.1%; in [12], 82%; in [13], 50.8%; in assay [15], 90%; in assay [16], 81.4%. The growth at 10 µM in assay [17] amounted to 80.5%; in assay [18] it was 88.1%; in assay [21], 88.2%; in assay [22] it was 93.6%; in assay [23], 68%. Also, the Activity came to 64% in [2], 114% in assay [14] and 52% in assay [20]. Besides, the IC50 in assay [6] was more than 10 µM; in assay [7], 0.27 µM; in assay [11] it was more than 10 µM; in [19], 2.1 µM.
For `Cn1cc(C2=C(c3cn(C)c4ccccc34)C(=O)N(O)C2=O)c2ccccc21`, the growth at 10 µM is 96.5% in [1]; 95.8% in [3]; 101% in assay [4]; 86.2% in [5]; 99.9% in assay [8]; 102% in [9]. Further, the growth at 10 µM is 118% in assay [25]; 92.8% in [10]; 102% in assay [24]; 74.2% in [13]; 82.8% in assay [15]; 107% in assay [16]. Besides, the growth at 10 µM in [21] came to 104%; in [22], 111%; in assay [23], 90.3%. Further, the Activity came out at 83% in assay [2], 118% in assay [14] and 33% in [20]. Further, the IC50 was more than 10 µM in assay [6], 3 µM in assay [7], more than 10 µM in assay [11] and 9 µM in assay [19].
On to `Cn1cc(C2=C(c3cn(C)c4ncccc34)C(=O)NC2=O)c2ccccc21`, for which the growth at 10 µM in [1] lay in the range of 23 to 53.8%; in assay [4] it was 8 to 26.5%; in assay [5], 13 to 22.7%; in [8], 21 to 33.4%; in [9], 34 to 53.5%; in [25] it was 20.3 to 29%. The growth at 10 µM lay within 27 to 36.6% in assay [12]; 12 to 22.6% in assay [13]; 23 to 44.6% in [17]; 30 to 49.3% in assay [18]; 8.78 to 12% in assay [21]; 25 to 50.2% in assay [22]. Besides, the Activity was -3% in [2], 101% in assay [14] and 1% in [20]. The IC50 in assay [6] was 0.8 µM; in assay [7] it was 0.03 µM; in assay [11], more than 10 µM; in [19], 0.08 µM.

A word on the IC50: it is the point on the concentration scale where inhibition reaches its midpoint.
